Reference: US20230190887A1, “TARGETING G3BP AGGREGATION TO PREVENT NEURODEGENERATION” (priority 2019, published 2023)
“Also recorded” adds a separate entry of the source.

Columns and labels:
[1] = test system: TDPΔNLS MN-muscle co-cultures; assay: Co-culture contraction analysis; format: cell-based, mouse; details: 20 μM G3BP1 peptides in NMJ compartment
Experimental: Muscles in co-culture were kept in BA medium for 7 days. To aid NMJ formation, media in all compartments was then replaced to poor neurobasal (PNB) medium, which contained only 1% P/S and 1% Glutamax. Doxycycline was applied to TDP-43ΔNLS cultures only at the proximal MN compartment, in a concentration of 0.1 μg/mL, immediately after plating and throughout the entire experimental timeline. For TDPΔNLS recovery experiments (FIGS. 7-8), Doxycline was […] at the proximal MN compartment after 5 DIV, and the cultures were grown until 11 DIV. […] NMJ activity was assessed by quantifying the percent of innervated and contracting myocytes in co-culture as previously described36. Briefly, after 12 days in co-culture, phase-contrast time lapse image series were acquired at a frame rate of 25 frames-per-second (25 FPS) using a X20 air objective. During imaging, cultures were maintained in controlled temperature and CO2 environment. For obtaining contraction time traces, we used the “Time Series Analyzer V3” plugin for FIJI ImageJ V.2.0.0, and marked a region of interest on a small, high contrast and mobile region on the muscle, and then obtained the mean values for each time point.

[2] = test system: axons of E18 cortical neurons; assay: Aβ oligomer-mediated axon degeneration in microfluidic cultures; format: cell-based; details: axons only exposed: Aβ oligomer 1 μM for 16 hours ± 190-208 G3BP1 peptide 1 μM
Experimental: To test whether the cell permeable G3BP1 190-208 peptide protects against this early axonal degeneration, the current disclosure exposed only the axons of E18 cortical neuron cultures to Aβ peptide using microfluidic cultures (FIG. 16A). […] Thus, the cell permeable G3BP1 190-208 peptide protects axons from the neurotoxic effects of Aβ oligomers through axon intrinsic mechanisms.
E18 cortical neurons were plated into the cell-body compartment (blue); after 7 DIV axons from these neurons extend through the microchannels into the axon compartment (pink). […] Yellow line indicates the exit of the axons from the microchannels.

E18 cortical neurons = assay: Aβ-induced neurite degeneration of cortical neurons; format: cell-based, rat; details: DIV7 E18 cortical neurons, 1 μM Aβ oligomer 16-18 hours, with 10 μM peptide
Experimental: To test whether the triggering disassembly of stress granules would be protective in Parkinson's and Alzheimer's disease, the inventors employed 1-methyl-4-phenylpyridinium (MPP+)-induced and amyloid β (Aβ)-mediated neurotoxicity models. Rat embryonic day 18 (E18) midbrain neurons cultured for 7 days were treated for 16-18 hours with 100 μM MPP+, see FIGS. 1A and B, while E18 cortical neurons were treated with 1 μM Aβ oligomer, see FIGS. 2A-2B, with or without 10 μM G3BP1 190-208 or 168-189 peptide. As a control, the inventors used non-treated neurons.
FIG. 2: Cell permeable G3BP1 190-208 peptide blocks pathological degeneration beta-amyloid-induced neurotoxicity in cortical neurons. (A) Representative images of NF-labeled (white) E18 cortical neurons. DIV7 cortical neurons were treated with […] (ii) or control (i) and 10 μM 190-208 G3BP1 peptide (iv) or 10 μM 168-189 control peptide (iii) [scale bar=100 μm]. (B) Quantitation of degeneration in cortical neurons treated with 1 μM Aβpeptide-treated neurons after addition of 190-208 G3BP1 or 168-189 control peptide. Solvent treated cells were used as control. […] (N≥95 over 3 cultures; by one-way ANOVA with Tukey HSD post-hoc).

[3] = test system: motor neurons generated from human induced pluripotent stem cells; assay: Neurite growth of hiPSC-derived motor neurons; format: cell-based; details: 20 μM peptide, assessed 24 h later
Experimental: Human induced pluripotent stem cells (hiPSCs) were maintained in dishes coated with Matrigel (Corning) in Flex8 media (ThermoFisher). hiPSCs were differentiated into human motor neurons using a directed differentiation protocol optimized by Kevin Eggan. 7000 neurons/well were plated on laminin—or CSPG coated 96 well plates. 100 μl at 10 μg/ml Laminin (ThermoFisher) and 25 ng CSPGs (Millipore) were used per well.
For peptide treatments, 10 μM Tat-fused peptides were added to dissociated DRG cultures at 2 or 12 h after plating. Neurite outgrowth was assessed 24 h after addition of peptides. For the cortical cultures, 10 μM peptide was applied to the axonal compartment at 3 d in vitro (DIV) and axonal growth was assessed at 6 DIV. For iMotor neurons, 20 μM peptides were immediately added and neurite growth was assessed 24 h later.
For neurite outgrowth, images from 60 h DRG cultures were analyzed for neurite outgrowth using WIS-Neuromath. Axon morphology was visualized using GFP and/or NF immunofluorescence as described. Differentiated hiPSC neuron image acquisition and neurite length quantification was performed using Arrayscan XTI (Thermo Fisher).

[4] = test system: G3BP1, TIA1, FMRP, FXR, TDP43 and FUS-TLS aggregates in E18 cortical neurons; assay: RNA binding protein aggregates along axons of Aβ oligomer-treated cortical neurons; format: cell-based, rat; details: 1 μM Aβ oligomer 2 hours, then peptide for additional 4 hours
Experimental: The data in FIGS. 13A-F and 14A-F raise the possibility that stress granule targeting therapies like the cell permeable G3BP1 190-208 peptide may decrease or even prevent loss of neurons across different types of neurodegenerative diseases. To address this possibility, the current disclosure asked if the cell permeable G3BP1 190-208 peptide could disassemble pathological protein aggregates in neurons. For this, 7 day cortical neuron cultures were treated with 1 μM A[…] oligomer for 2 hours and then treated with cell permeable G3BP1 190-208 peptide or a scramble sequence cell permeable peptide for an additional 4 hours. […] Thus, the cell permeable G3BP1 190-208 peptide can not only prevent RNA binding protein aggregation in axons after exposure to neurotoxins associated AD and PD, but it can also trigger disassembly of these pathological aggregates after they begin to form.
Representative confocal images for G3BP1. […] Quantifications for co:localization of FMRP, FXR, TDP43, FUS-TLS and TIA1 with G3BP1 in axons of E18 cortical neurons treated as in C are shown as average Pearson's coefficient±SEM (N≥120 aggregates over three repetitions and *p≤0.01, **p≤0.005, ***p≤0.001 for entire population distributions by Fishers exact test for FIG. 15B and FIG. 15D; […] neurons over 3 repetitions and *p≤0.01 **p≤0.005, ***p≤0.001 by one-way ANOVA with Tukey HSD post-hoc for FIG. 15E).

## YGNKKNNNQNNN-VVEPEPEPEPEPEPEPVSE [G3BP1 190-208 peptide]
[1]
  percent of innervated muscles that contract: reversed
[2]
  axon degeneration: near completely prevented this axon degeneration; also recorded: rescues amyloid beta oligomer-mediated axonal degeneration
E18 cortical neurons; listed as 190-208 peptide
  neurite degeneration: significant rescue from Aβ-induced neurite degeneration
E18 cortical neurons; listed as G3BP1 190-208
  neurite degeneration: prevented neurite degeneration
[3]
  neurite length: significantly increased neurite length
[4]
  TIA1, FMRP, FXR, TDP43 and FUS-TLS colocalization with G3BP1: significantly decreased
  size of G3BP1, TIA1, FMRP, FXR, TDP43 and FUS-TLS aggregates along axons: significantly decreased size; also recorded: reduction in amyloid beta treatment dependent G3BP1-associated protein aggregates
